Measured values taken from ChEMBL document CHEMBL1201862, “PubChem BioAssay data set” (2004).
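Where inhibition never reached the appropriate level, the endpoint shown equals the highest concentration tested. Otherwise, values were interpolated linearly from a five-concentration, 48-hour dose response in 96-well plates. GI50 is the concentration that inhibits growth by half.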 Activity calls are given as the source filed them. No stated cut-off is given here; in the data, active = GI50 up to about 1.1 µM and inactive = higher.

What was measured:
Test in all cases: growth of human tumour cells (NCI), 48 h
OVCAR-3 = test system: OVCAR-3
M14 = test system: M14
HOP-62 = test system: HOP-62
OVCAR-5 = test system: OVCAR-5
SNB-75 = test system: SNB-75
LOX IMVI = test system: LOX IMVI
SK-MEL-2 = test system: SK-MEL-2
CAKI-1 = test system: CAKI-1
UACC-62 = test system: UACC-62
NCI-H460 = test system: NCI-H460
COLO 205 = test system: COLO 205
ACHN = test system: ACHN
HCT-116 = test system: HCT-116
U-251 = test system: U-251
Malme-3M = test system: Malme-3M
786-0 = test system: 786-0
UACC-257 = test system: UACC-257
NCI-H23 = test system: NCI-H23
HL-60 = test system: HL-60

Measured: GI50

[N-]=[N+]=Nc1ccc(S(=O)(=O)Oc2cc(OS(=O)(=O)c3ccc(N=[N+]=[N-])cc3)cc(OS(=O)(=O)c3ccc(N=[N+]=[N-])cc3)c2)cc1
inactive: OVCAR-3 > 100 µM | M14 > 100 µM | HOP-62 > 100 µM | OVCAR-5 > 100 µM | SNB-75 > 10 µM | LOX IMVI > 100 µM | SK-MEL-2 > 100 µM | CAKI-1 > 10 µM | UACC-62 > 100 µM | NCI-H460 > 100 µM | COLO 205 > 10 µM | ACHN > 10 µM | HCT-116 > 100 µM | U-251 > 100 µM | Malme-3M > 100 µM | 786-0 > 100 µM | UACC-257 > 100 µM | NCI-H23 > 100 µM

C[C@]12CCC(=O)C=C1CC[C@@H]1C2CC[C@]2(C)Nc3c(cnn3-c3ccccc3)CC12 (some centres undefined)
inactive: OVCAR-3 > 10 µM | M14 > 100 µM | HOP-62 > 100 µM | OVCAR-5 > 100 µM | SNB-75 39.1 µM | SK-MEL-2 > 100 µM | CAKI-1 > 100 µM | UACC-62 > 100 µM | NCI-H460 > 100 µM | ACHN > 100 µM | HCT-116 > 100 µM | U-251 > 100 µM | Malme-3M > 100 µM | 786-0 > 100 µM | UACC-257 > 100 µM | HL-60 > 100 µM | NCI-H23 > 100 µM

N#Cc1ccccc1Nc1ccccc1S
inactive: HOP-62 46.7 µM | OVCAR-5 29.4 µM | LOX IMVI 17.5 µM | SK-MEL-2 56.4 µM | CAKI-1 > 100 µM | UACC-62 19.1 µM | NCI-H460 35.2 µM | COLO 205 > 100 µM | ACHN 51.1 µM | U-251 > 10 µM | Malme-3M 20.5 µM | 786-0 20.9 µM | UACC-257 57.3 µM | HL-60 25.3 µM | NCI-H23 37.8 µM

C=C1CC2(CCS(=O)(=O)c3ccccc32)OC1=O (centres undefined)
inactive: OVCAR-3 7.52 µM | M14 6.62 µM | HOP-62 18.3 µM | OVCAR-5 14.3 µM | LOX IMVI 17.3 µM | SK-MEL-2 10.7 µM | CAKI-1 1.48 µM | UACC-62 15.9 µM | NCI-H460 18.5 µM | COLO 205 2.99 µM | ACHN 11.5 µM | U-251 13.2 µM | Malme-3M 12.4 µM | 786-0 4.32 µM | UACC-257 14.5 µM | HL-60 2.96 µM | NCI-H23 12 µM

C/C(=N/NC(=O)C[n+]1ccccc1)C(CN(CC(C)C)CC(C)C)C(=O)Nc1ccc(C)cc1C (centres undefined)
inactive: M14 > 100 µM | HOP-62 90.8 µM | OVCAR-5 65.5 µM | SK-MEL-2 > 100 µM | UACC-62 > 100 µM | NCI-H460 > 100 µM | COLO 205 > 100 µM | ACHN 54.5 µM | HCT-116 > 100 µM | Malme-3M > 100 µM | 786-0 > 100 µM | UACC-257 > 100 µM | HL-60 59.6 µM | NCI-H23 > 100 µM

CCOc1ccc(NC(=O)CC2C(=O)Nc3ccccc3S2(=O)=O)cc1 (centres undefined)
inactive: OVCAR-3 77.1 µM | HOP-62 41.1 µM | OVCAR-5 > 100 µM | SNB-75 18.1 µM | LOX IMVI > 100 µM | SK-MEL-2 75.2 µM | NCI-H460 > 100 µM | COLO 205 > 100 µM | ACHN > 100 µM | HCT-116 > 100 µM | U-251 33.2 µM | Malme-3M > 100 µM | 786-0 33.7 µM | UACC-257 > 100 µM | HL-60 > 100 µM | NCI-H23 > 100 µM

COc1nc(C(=O)O)c(Cl)c(OC)c1Cl
inactive: OVCAR-3 > 100 µM | M14 > 100 µM | HOP-62 > 100 µM | OVCAR-5 > 100 µM | SK-MEL-2 > 100 µM | CAKI-1 > 100 µM | UACC-62 > 100 µM | NCI-H460 > 100 µM | COLO 205 > 100 µM | ACHN > 100 µM | HCT-116 > 100 µM | Malme-3M > 100 µM | 786-0 > 100 µM | UACC-257 > 100 µM | HL-60 > 100 µM | NCI-H23 > 100 µM

O=C1N=C(S)NNC12c1ccccc1-c1ccccc12
inactive: M14 > 10 µM | HOP-62 > 10 µM | SNB-75 > 10 µM | LOX IMVI > 10 µM | CAKI-1 > 10 µM | UACC-62 > 10 µM | NCI-H460 5.42 µM | COLO 205 > 10 µM | U-251 > 10 µM | Malme-3M > 10 µM | 786-0 > 10 µM | UACC-257 > 10 µM | HL-60 > 10 µM | NCI-H23 > 10 µM

CCOC(=O)C(=O)Nc1ccccc1OCC
inactive: OVCAR-3 > 100 µM | M14 > 100 µM | HOP-62 > 100 µM | OVCAR-5 > 100 µM | LOX IMVI > 100 µM | SK-MEL-2 > 100 µM | CAKI-1 > 100 µM | UACC-62 > 100 µM | NCI-H460 > 100 µM | ACHN > 100 µM | HCT-116 > 100 µM | U-251 > 100 µM | Malme-3M > 100 µM | 786-0 > 100 µM | UACC-257 > 100 µM | HL-60 > 100 µM | NCI-H23 > 100 µM

CC(=O)NC1=C(NCCO)C(=O)c2ccccc2C1=O
inactive: OVCAR-3 18.9 µM | M14 > 50 µM | HOP-62 > 50 µM | SNB-75 > 50 µM | LOX IMVI > 50 µM | SK-MEL-2 > 50 µM | UACC-62 > 50 µM | NCI-H460 > 50 µM | COLO 205 > 50 µM | ACHN > 50 µM | HCT-116 30.1 µM | U-251 > 50 µM | Malme-3M 12.8 µM | 786-0 > 50 µM | UACC-257 > 50 µM | HL-60 20.8 µM | NCI-H23 > 50 µM

CC1SC2=NC3=C(c4ccccc4C3=O)C(c3ccc(Cl)cc3)N2C1=O (centres undefined)
inactive: OVCAR-3 > 100 µM | M14 > 100 µM | HOP-62 > 100 µM | OVCAR-5 > 100 µM | SNB-75 45.8 µM | SK-MEL-2 > 100 µM | CAKI-1 > 100 µM | UACC-62 > 100 µM | NCI-H460 > 100 µM | COLO 205 > 100 µM | ACHN > 100 µM | U-251 > 100 µM | Malme-3M > 100 µM | 786-0 > 100 µM | UACC-257 > 100 µM | HL-60 > 100 µM | NCI-H23 97.7 µM

COc1ccc(/C=C/C(=O)c2sc(NC(=S)NC(=O)c3ccccc3F)nc2C)cc1OC
inactive: OVCAR-3 > 100 µM | HOP-62 > 100 µM | OVCAR-5 > 100 µM | SNB-75 26.5 µM | LOX IMVI > 100 µM | SK-MEL-2 > 100 µM | CAKI-1 > 100 µM | UACC-62 85.9 µM | NCI-H460 > 100 µM | COLO 205 51.5 µM | ACHN > 100 µM | U-251 > 100 µM | Malme-3M > 100 µM | 786-0 > 100 µM | HL-60 46.2 µM | NCI-H23 > 100 µM
